We go through one compound from patent US4764602A, “Antibiotics, and their production” (Sumitomo Chemical Company, priority 1986, dated 1988).

The MIC is the lowest concentration that inhibits growth of the organism. Read a low MIC as greater potency.

Data set [1] concerns Micrococcus luteus ATCC 9341. In words: MIC by agar dilution method. To be noted: ATCC9341, Modified MullerHinton agar medium. The class given is cell-based. The text has this: (§1) The minimum inhibitory concentrations (MIC) of PC-766B against various microorgnisms as measured by the agar dilution method are shown in Table 4.
(§2) Note: *^1 1: Modified MullerHinton agar medium; 2: Sabouraud's agar
In general terms: In agar dilution, organisms are placed on agar that contains the substance at set levels.

Data set [2] relates to Staphylococcus epidermidis IAM 1296. As to the kind of experiment: MIC by agar dilution method. The class given is cell-based. Conditions: IAM1296, Modified MullerHinton agar medium.
Source text: as §1, §2

Data set [3] concerns Cryptococcus neoformans MTU 13001. As to the kind of experiment: MIC by agar dilution method. Conditions: MTU13001, Sabouraud's agar medium. The class given is cell-based.
Source text: as §1, §2

Data set [4] deals with Proteus mirabilis GN 2425. As to the kind of experiment: MIC by agar dilution method. It counts as cell-based. To be noted: GN2425, Modified MullerHinton agar medium.
Source text: as §1, §2

The test system of data set [5] is Candida albicans MTU 12001. In words: MIC by agar dilution method. To be noted: MTU12001, Sabouraud's agar medium. The class given is cell-based.
Source text: as §1, §2

The test system of another data set is Pseudomonas aeruginosa T. In words: MIC by agar dilution method. The class given is cell-based. Conditions: Modified MullerHinton agar medium.
Source text: as §1, §2

Data set [6] concerns Bacillus subtilis ATCC 6633. In words: MIC by agar dilution method. The class given is cell-based. To be noted: ATCC6633, Modified MullerHinton agar medium.
Source text: as §1, §2

Data set [7] relates to Staphylococcus aureus 209P. As to the kind of experiment: MIC by agar dilution method. It counts as cell-based. Conditions: Modified MullerHinton agar medium.
Source text: as §1, §2

The test system of data set [8] is Aspergillus fumigatus MTU 16001. As to the kind of experiment: MIC by agar dilution method. To be noted: MTU16001, Sabouraud's agar medium. It counts as cell-based.
Source text: as §1, §2

The subject of a further data set is Bacillus cereus IAM 1029. In words: MIC by agar dilution method. The class given is cell-based. To be noted: IAM1029, Modified MullerHinton agar medium.
Source text: as §1, §2

Data set [9] deals with Streptococcus pyogenes Cook. As to the kind of experiment: MIC by agar dilution method. The class given is cell-based. Conditions: Modified MullerHinton agar medium.
Source text: as §1, §2

For data set [10], the system named is Klebsiella pneumoniae ATCC 10031. In words: MIC by agar dilution method. The class given is cell-based. To be noted: ATCC10031, Modified MullerHinton agar medium.
Source text: as §1, §2

For data set [11], the system named is Trichophyton mentagrophytes MTU 19001. As to the kind of experiment: MIC by agar dilution method. To be noted: MTU19001, Sabouraud's agar medium. The class given is cell-based.
Source text: as §1, §2

Data set [12] has as its system Escherichia coli NIJH JC-2. In words: MIC by agar dilution method. It counts as cell-based. Conditions: NIJHJC2, Modified MullerHinton agar medium.
Source text: as §1, §2

In the next data set the test system is Serratia marcescens ×100. In words: MIC by agar dilution method. It counts as cell-based. To be noted: Modified MullerHinton agar medium.
Source text: as §1, §2

A short description of another data set: Solubility. The class given is physicochemical.

SMILES strings stand for the structures. Converted amounts (≈) assume the structure as drawn.

In the case of `CC=CC=CC1OC(O)(C(C)C(O)C(C)C2OC(=O)C(OC)=CC(C)=CC(C)C(O)C(C)CC(C)=CC=CC2OC)CC(OC2CC(O)C(O)C(C)O2)C1C` (centres unmarked) [PC-766B], the MIC in [1] was 1.56 µg/mL (≈ 2.01 µM); in [2], 6.25 µg/mL (≈ 8.04 µM); in data set [3], 12.5 µg/mL (≈ 16.1 µM); in data set [4], > 200 µg/mL; in data set [5], > 100 µg/mL; against Pseudomonas aeruginosa T, > 200 µg/mL. Further, the MIC in data set [6] was 6.25 µg/mL (≈ 8.04 µM); in data set [7], 12.5 µg/mL (≈ 16.1 µM); in data set [8], > 100 µg/mL; in the data set with Bacillus cereus IAM 1029, 3.13 µg/mL (≈ 4.03 µM); in data set [9] it was 3.13 µg/mL (≈ 4.03 µM); in [10], > 200 µg/mL. Moreover, the values for the MIC (in data set [11]; in data set [12]; against Serratia marcescens ×100) were > 100 µg/mL, > 200 µg/mL and > 200 µg/mL, respectively. The Solubility result in the data set “Solubility” (methanol, chloroform and ethyl acetate) is “soluble in methanol, chloroform and ethyl acetate”; in the data set “Solubility” (n-hexane and water), “insoluble in n-hexane and water”.
